The nature of one data set: in vivo. The settings on record: mouse, ip. As for the experimental part: Neurotoxicity in mice was determined using mice of strain CDF1. This was carried out by (1) determining the LD50 of each compound in mice and (2) observing the animals for acute neurotoxic symptoms such as convulsions. The drugs were either solubilized or suspended in normal saline and administered intraperitoneally to groups of ten mice. […]

A short description of data set [1]: In vitro cytotoxicity in hypoxic cells (% survival). The data set is classed as cell-based, Chinese hamster. The settings on record: hamster, v-79 cells; for viability at 2 h, 100 µM / viability at 4 h, 100 µM: 0.1 mM; for viability at 2 h, 500 µM / viability at 4 h, 500 µM: 0.5 mM. On the procedure:
(§1) Asynchronous monolayers of cultures of Chinese hamster cells line V-79 were employed in all experiments. The monolayers were derived from exponentially growing cultures. Methods of culturing and handling have been reported earlier by Cooke et al, Rad. Res. 65, 152 (1976). The plated cultures were rendered hypoxic in sealed dural containers capable of holding seven petri dishes, by purging with nitrogen (oxygen-free grade) for one hour. Irradiation was carried out by using a cobalt-60 source at a dose rate of approximately 240 rad/min according to the procedure described by Agrawal et al Rad. Res. 78:532 (1979). A dose of 1400 rad was given to hypoxic cells in glass petri dishes in the presence of a given drug concentration (2000 cells/dish). Cell survival was estimated from unirradiated toxic hypoxic cells exposed to the same drug concentration. Complete survival curves were obtained for each compound at the radiation doses of 400 to 3000 rad. The Do value was calculated for each compound and the ratio of the Do value for the hypoxic control cells to the Do value of the hypoxic drug treated cells provided the sensitized enhancement ratio of the corresponding agent.
(§2) Cultures were incubated for 6 days at 37° C. in an atmosphere of 5% CO2. The resulting colonies were fixed in absolute ethanol and stained with methylene blue and counted.
(§3) To determine toxicity in vitro, glass petri dishes containing approximately 200 Chinese hamster cells/dish were exposed to a range of concentrations of each drug for 2 hours and/or 4 hours at 37° C. Drug concentrations between 10 μM and 0.5 mM were employed initially.

For data set [2], the system named is Chinese hamster cells line V-79. In words: Radiosensitization (enhancement ratio, cobalt-60 irradiation of hypoxic cells). Type of data set: cell-based. As for the experimental part: as §1, §2
Data set [3] is described as follows: In vitro cytotoxicity in oxic cells (% survival). Type of data set: cell-based, Chinese hamster. The settings on record: hamster, v-79 cells, oxic; for viability at 2 h, 100 µM / viability at 4 h, 100 µM: 0.1 mM; for viability at 2 h, 500 µM / viability at 4 h, 500 µM: 0.5 mM. On the procedure:
as §1, §2, §3

In data set [4] the test system is hypoxic cells (Chinese hamster cells line V-79). As to the kind of experiment: Differential toxicity to hypoxic cells at 4 hours. The data set is classed as cell-based. As for the experimental part:
as §1, §3

Data set [5] has as its system Chinese hamster cells line V-79 (oxic). As to the kind of experiment: In vitro cytotoxicity in oxic cells (% survival). Type of data set: cell-based. The settings on record: 4 hours, 240 min. As for the experimental part: as §1, §2, §3
A further data set deals with hypoxic tumor cells. The settings on record: cited from earlier work.
A further data set has as its system central nervous system. The settings on record: cited from earlier work.
Setting [6] is: 2 hours, read-out: In vitro cytoxicity in hypoxic cells (% survival at 2 hours).
[7] abbreviates: 4 hours, read-out: In vitro cytoxicity in hypoxic cells (% survival at 4 hours).
Where [8] appears, read: 2 hours, read-out: In vitro cytoxicity in oxic cells (% survival at 2 hours).
Setting [9] is: 4 hours, read-out: In vitro cytoxicity in oxic cells (% survival at 4 hours).
Where [10] appears, read: 2 hours, 0.01 mM, read-out: In vitro cytoxicity in oxic cells (% survival at 2 hours).
Where [11] appears, read: 2 hours, 0.05 mM, read-out: In vitro cytoxicity in oxic cells (% survival at 2 hours).

Like-named read-outs stand apart in the source and are kept apart here.

As usually defined, the LD50 is the dose expected to kill half of the subjects tested. A high value points to lower toxicity. In the data set “in vivo”, `O=[N+]([O-])c1nccn1[C@@H]1C=C[C@H](O)[C@@H](CO)O1` [A, 1(2',3didehydro-2',3dideoxy-D-erythro-hexopyranonyl)-2-nitroimidazole] returned an LD50 at 24 h of 3300 mg/kg. The viability at 2 h, 100 µM in data set [1] (setting [6]) was found to be 97.3%; in data set [3] (setting [8]) it was 99%. For the same compound, the viability at 2 h, 250 µM in data set [1] (2 hours, 0.25 mM, read-out: In vitro cytoxicity in hypoxic cells (% survival at 2 hours)) was 92%; in data set [3] (2 hours, 0.25 mM, read-out: In vitro cytoxicity in oxic cells (% survival at 2 hours)), 104%. Further, the viability at 2 h, 500 µM came out at 75.9% in data set [1] (setting [6]) and 90% in data set [3] (setting [8]). The viability at 2 h, 1000 µM was 59.6% in data set [1] (2 hours, 1.0 mM, read-out: In vitro cytoxicity in hypoxic cells (% survival at 2 hours)) and 82.4% in data set [3] (2 hours, 1.0 mM, read-out: In vitro cytoxicity in oxic cells (% survival at 2 hours)). Also, the values for the viability at 4 h, 100 µM in data set [1] (setting [7]) and in data set [3] (setting [9]) were 56.7% and 99%, respectively. Besides, the viability at 4 h, 250 µM was 26.7% in data set [1] (4 hours, 0.25 mM, read-out: In vitro cytoxicity in hypoxic cells (% survival at 4 hours)) and 104% in data set [3] (4 hours, 0.25 mM, read-out: In vitro cytoxicity in oxic cells (% survival at 4 hours)). The viability at 4 h, 500 µM in data set [1] (setting [7]) stood at 15.8%. Also, the viability at 4 h, 1000 µM in data set [1] (4 hours, 1.0 mM, read-out: In vitro cytoxicity in hypoxic cells (% survival at 4 hours)) is 0%. Further, the “Radiosensitization (enhancement ratio in Chinese hamster cells)” value in data set [2] (0.25 mM) is recorded as 2.0; in data set [2] (0.5 mM) it was 2.2. For the same compound, the “Differential toxicity to hypoxic cells at 4 hours” value (“Differential toxicity” below) in data set [4] is “Yes”.

Regarding `CC(=O)OC[C@H]1O[C@H](n2ccnc2[N+](=O)[O-])C=C[C@@H]1OC(C)=O` [B, 1(4',6di-O--acetyl2',3didehydro-2',3dideoxy-D-erythro-hexopyranosyl)-2-ni roimidazole], the viability at 2 h, 100 µM was 90.9% in data set [1] (setting [6]) and 103% in data set [3] (setting [8]). Moreover, the viability at 2 h, 500 µM in data set [1] (setting [6]) and in data set [3] (setting [8]) was 100% in each case. Moreover, the results for the viability at 4 h, 100 µM in data set [1] (setting [7]) and in data set [3] (setting [9]) were 96% and 101%, respectively. The values for the viability at 4 h, 500 µM in data set [1] (setting [7]) and in data set [3] (setting [9]) were 60.3% and 102%, respectively. The “Radiosensitization (enhancement ratio in Chinese hamster cells)” value in data set [2] (0.5 mM) amounted to 2.0. Moreover, the viability at 2 h, 10 µM in data set [3] (setting [10]) came to 106%. In addition, the viability at 2 h, 50 µM in data set [3] (setting [11]) is 100%. For the same compound, the viability at 4 h, 10 µM in data set [3] (4 hours, 0.01 mM, read-out: In vitro cytoxicity in oxic cells (% survival at 4 hours)) was 100%. The viability at 4 h, 50 µM in data set [3] (4 hours, 0.05 mM, read-out: In vitro cytoxicity in oxic cells (% survival at 4 hours)) was 100%. Besides, in data set [4], the “Differential toxicity” value is on record as “Yes”.

In the case of `CC(=O)OC[C@H]1O[C@@H](n2ccnc2[N+](=O)[O-])C=C[C@@H]1OC(C)=O` [C, 1(4',6di-O--acetyl2',3didehydro-2',3dideoxy-D-erythro-hexopyranosyl)-2-ni roimidazole], the viability at 2 h, 100 µM turned out to be 104% in data set [1] (setting [6]) and 95% in data set [3] (setting [8]). Besides, the viability at 2 h, 500 µM came out at 92.6% in data set [1] (setting [6]) and 97% in data set [3] (setting [8]). In addition, the viability at 4 h, 100 µM was determined as 86.6% in data set [1] (setting [7]) and 101% in data set [3] (setting [9]). The viability at 4 h, 500 µM in data set [1] (setting [7]) was found to be 41.1%; in data set [3] (setting [9]), 103%. The “Radiosensitization (enhancement ratio in Chinese hamster cells)” value in data set [2] (0.5 mM) amounted to 1.6. Further, in data set [3] (setting [10]), the viability at 2 h, 10 µM worked out at 101%. For the same compound, the viability at 2 h, 50 µM in data set [3] (setting [11]) amounted to 100%. Moreover, the “In vitro cytoxicity in oxic cells (% survival at 4 hours)” value worked out at 94% in data set [5] (0.1 mM, 100 µM) and 88% in data set [5] (0.5 mM, 500 µM). In addition, in data set [4], the “Differential toxicity” value is “Yes”.

As for `COCC(O)Cn1ccnc1[N+](=O)[O-]` (centres unmarked) [N, Misonidazole], the effectiveness in vivo entry in the data set on hypoxic tumor cells is recorded as “effective in vivo”. The “Differential toxicity” value in data set [4] is recorded as “Yes”. In addition, the “side effects in mice” value in the data set on central nervous system (administered orally) is “peripheral neuropathy and convulsions in mice”. In addition, the “central nervous system toxicity” value in the data set with central nervous system (use in humans) is reported as “central nervous system toxicity is a limiting factor for their use in humans”.

Consider `Cc1ncc([N+](=O)[O-])n1CCO` [O, Metronidazole], for which, in data set [2] (1.0 mM), the “Radiosensitization (enhancement ratio in Chinese hamster cells)” value is 1.5. Further, the radiosensitization activity result in the data set on hypoxic tumor cells (in vivo and in vitro) is “active both in vivo and in vitro”. For the same compound, the effectiveness in vivo result in the data set with hypoxic tumor cells is reported as “effective in vivo”. The “Differential toxicity” value in data set [4] is recorded as “Yes”. The “side effects in mice” value in the data set with central nervous system (in vivo, po) was “peripheral neuropathy and convulsions in mice”. Also, in the data set on central nervous system (in vivo), the “central nervous system toxicity” value is reported as “central nervous system toxicity is a limiting factor for their use in humans”.

(Values after patent US4462992A, “Nitroimidazole radiosensitizers for hypoxic tumor cells and compositions thereof” (priority 1982, dated 1984).)
